Assay results from publication PMC9738179, “New Nucleic Base-Tethered Trithiolato-Bridged Dinuclear Ruthenium(II)-Arene Compounds: Synthesis and Antiparasitic Activity” (Molecules, 2022).
Where “and” joins values, the source holds several entries; their conditions need not be identical. Equal values may be shown once. Entries after “also recorded” stand apart in the source; their conditions may differ. Read-outs that look alike come from different tables or passages of the source.

What was measured:
[1] = tested on: T. gondii β-gal tachyzoites; parameters: method as in PMID 32347622, doi:10.3390/inorganics9080059, PMID 34144354; conditions: previously reported, ref [93],[96],[111], cited from earlier work
[2] = tested on: human foreskin fibroblasts (HFF); conditions: cited from earlier work
[3] = Stability in DMSO-d6 by 1H NMR (5 min vs 100 days); format: physicochemical; conditions: 25 °C, 5 min and 100 days after sample preparation, stored at 0-5 °C in the dark
Procedure: For the biological activity evaluation, 1 mM stock solutions of all compounds were prepared in dimethylsulfoxide (DMSO).
The conjugates are well soluble in DMSO, solvent used to prepare standard solutions for biological […]
To assess their stability, compounds 4, 24, 28, 33 and 39 were dissolved in DMSO-d6, and two 1H NMR spectra were recorded at 25°C 5 min and at least 100 days after sample preparation (Figures S1 and S2).
Between the two experiments, the samples were stored at 0°C. For all compounds, there are no significant changes between the spectrum recorded after 5 min and the spectrum recorded after at least […]
further biological tests.
Figure S1. […]

[4] = tested on: T. gondii β-gal tachyzoites; conditions: cited from earlier work
[5] = tested on: T. gondii β-gal tachyzoites; test: Primary screening: T. gondii β-gal proliferation in HFF monolayers at 0.1 and 1 µM (CPRG readout); format: cell-based, Toxoplasma gondii; conditions: tachyzoites cultured in HFF, 72 h, relative to DMSO control
Procedure: (§1) The screening cascade for the compounds was described in former studies. All compounds were prepared as 1 mM stock solutions from powder, in dimethyl sulfoxide (DMSO, Sigma, St. Louis, MO, USA). For in vitro activity and cytotoxicity assays, HFF were seeded at 5 × 10^3/well and allowed to grow to confluence in phenol-red free culture medium at 37 °C and 5% CO2. T. gondii tachyzoites were released from host cells, and HFF monolayers were infected with freshly isolated parasites (1 × 10^3/well), and compounds were added concomitantly with infection.
In the primary screening, HFF monolayers infected with T. gondii β-gal were treated with 0.1 and 1 µM of each compound, or the corresponding concentration of DMSO (0.01 or 0.1%, respectively) as controls and were incubated for 72 h at 37 °C/5% CO2 as previously described.
(§2) To measure the activity of the tested compound on T. gondii β-gal parasites, after a period of 72 h of culture at 37 °C/5% CO2, the culture medium was aspirated, and cells were permeabilized by adding 90 μL PBS (phosphate buffered saline) with 0.05% Triton X-100. Next, 10 μL of 5 mM chlorophenolred-β-D-galactopyranoside (CPRG; Roche Diagnostics, Rotkreuz, Switzerland, substrate for the β-galactosidase) in PBS were added. Release of chlorophenol red was measured at 570 nm using an EnSpire® multimode plate reader (PerkinElmer, Inc., Waltham, MA, USA). A 100% proliferation of T. gondii β-gal was assigned to control parasites treated only with DMSO. For the primary screening at 0.1 and 1 μM, the activity was measured as the release of chlorophenol red over time and was calculated as percentage from the respective DMSO treated control, which represented 100% of T. gondii β-gal growth.

[6] = tested on: T. gondii β-gal tachyzoites; test: Dose-response study (IC50) against T. gondii β-gal tachyzoites; format: cell-based, Toxoplasma gondii; conditions: 8 serial concentrations 0.007-1 µM, 72 h
Procedure: as §1
For the dose-response study (IC50 values), measurements for T. gondii β-gal were performed. The selected compounds were added concomitantly with infection in 8 serial concentrations 0.007, 0.01, 0.03, 0.06, 0.12, 0.25, 0.5, and 1 μM.
as §2
For the IC50 assays, the activity measured as the release of chlorophenol red over time was proportional to the number of live parasites down to 50 per well as determined in pilot assays. IC50 values were calculated after the logit-log-transformation of relative growth and subsequent regression analysis. All calculations were performed using the corresponding software tool contained in the Excel software package (Microsoft, Redmond, WA, USA).

[7] = tested on: human foreskin fibroblasts (HFF); test: Cytotoxicity in non-infected HFF by alamarBlue assay; format: cell-based
Procedure: as §1
(§3) Cytotoxicity assays using uninfected confluent HFF host cells were performed by the alamarBlue assay as previously reported. Confluent HFF monolayers in 96 well-plates were exposed to 0.1, 1, and 2.5 μM of each compound. Non-treated HFF as well as DMSO controls (0.01%, 0.1%, and 0.25%) were included. After 72 h of incubation at 37 °C/5% CO2, the medium was removed, and the plates were washed once with PBS. Resazurin suspended in PBS to a final concentration of 0.01 g/L was added to each well (200 μL/well). Fluorescence was measured at excitation wavelength 530 nm and emission wavelength […] using an EnSpire® multimode plate reader (PerkinElmer, Inc, Waltham, MA, USA). The cytotoxicity values were calculated as percentage of the respective DMSO control, which represented 100% of HFF viability.

[8] = tested on: T. brucei bloodstream forms; parameters: method as in PMID 34639127; conditions: ref [126]; cited from earlier work
[9] = Cytotoxicity in non-infected HFF by alamarBlue assay; format: cell-based, human; conditions: human, non-infected HFF, 72 h, relative to DMSO control, triplicate
Procedure: as §1, §3

[10] = 0.1 µM, non-infected HFF, previously reported, ref [93],[96],[111]
[11] = 1 µM, non-infected HFF, previously reported, ref [93],[96],[111]
[12] = 0.1 µM, non-infected HFF, 72 h, relative to DMSO control, triplicate
[13] = 2.5 µM, control 0.25% DMSO = 100%, six replicates
[14] = 1 µM, non-infected HFF, 72 h, relative to DMSO control, triplicate

## CC(C)(C)c1ccc(C[S+]2[Ru-]3[S+](Cc4ccc(C(C)(C)C)cc4)[Ru-]2[S+]3c2ccc(CC(=O)O)cc2)cc1.Cc1ccc(C(C)C)cc1.Cc1ccc(C(C)C)cc1.[Cl-] (centres unmarked) [Compound 3]
[1]; 0.1 µM
  T. gondii β-gal Growth (%): 114 ± 2%
[1]; 1 µM
  T. gondii β-gal Growth (%): 110 ± 2%
[2]; [10]
  HFF Viability (%): 91 ± 4%
[2]; [11]
  HFF Viability (%): 73 ± 1%
[2]; 2.5 µM, intermediates previously reported, not in Table 2, ref [93],[111]
  HFF viability at 2.5 µM: did not affect HFF viability

## CC(C)(C)c1ccc(C[S+]2[Ru-]3[S+](Cc4ccc(C(C)(C)C)cc4)[Ru-]2[S+]3c2ccccc2CO)cc1.Cc1ccc(C(C)C)cc1.Cc1ccc(C(C)C)cc1.[Cl-] (centres unmarked) [Compound 4]
[3]
  Stability in DMSO-d6 (1H NMR spectra): very good stability; also recorded: no modifications
[1]; 0.1 µM
  T. gondii β-gal Growth (%): 2 ± 0%
[1]; 1 µM
  T. gondii β-gal Growth (%): 1 ± 0%
[4]; compound reported earlier, ref [96]
  IC50: 0.038 µM
[2]; [10]
  HFF Viability (%): 80 ± 1%
[2]; [11]
  HFF Viability (%): 69 ± 6%
[2]; 2.5 µM, compound reported earlier, ref [96]
  HFF Viability (%): 4%

## C#CCNC(=O)Cc1ccc([S+]2[Ru-]3[S+](Cc4ccc(C(C)(C)C)cc4)[Ru-]2[S+]3Cc2ccc(C(C)(C)C)cc2)cc1.Cc1ccc(C(C)C)cc1.Cc1ccc(C(C)C)cc1.[Cl-] (centres unmarked) [Compound 8]
[1]; 0.1 µM
  T. gondii β-gal Growth (%): 52 ± 13%
[1]; 1 µM
  T. gondii β-gal Growth (%): 3 ± 1%

## CC(C)(C)c1ccc(C[S+]2[Ru-]3[S+](Cc4ccc(C(C)(C)C)cc4)[Ru-]2[S+]3c2ccc(CC(=O)OCCn3cnc4c(N)ncnc43)cc2)cc1.Cc1ccc(C(C)C)cc1.Cc1ccc(C(C)C)cc1.[Cl-] (centres unmarked) [Compound 14]
[5]; 0.1 µM
  T. gondii β-gal Growth (%): 12 ± 1%
[6]
  IC50: 0.059 µM
[7]; [12]
  HFF Viability (%): 95 ± 11%
[7]; [13]
  HFF Viability (%): low toxicity and medium toxicity and 76%
[8]
  Activity against T. brucei bloodstream forms: highly active

## C#CCn1ccc(=O)[nH]c1=O.C#CCn1ccc(=O)[nH]c1=O [Compound 15]
[5]; 0.1 µM
  T. gondii β-gal Growth (%): 109 ± 5%
[5]; 1 µM
  T. gondii β-gal Growth (%): 83 ± 0%
[9]
  viability at 72 h, 0.1 µM: 107 ± 2%
  viability at 72 h, 1 µM: 96 ± 2%

## C#CCn1cc(C)c(=O)[nH]c1=O.C#CCn1cc(C)c(=O)[nH]c1=O [Compound 16]
[5]; 0.1 µM
  T. gondii β-gal Growth (%): 96 ± 8%
[5]; 1 µM
  T. gondii β-gal Growth (%): 95 ± 6%
[9]
  viability at 72 h, 0.1 µM: 104 ± 2%
  viability at 72 h, 1 µM: 103 ± 3%

## C#CCn1ccc(N)nc1=O.C#CCn1ccc(N)nc1=O [Compound 17]
[5]; 0.1 µM
  T. gondii β-gal Growth (%): 111 ± 5%
[5]; 1 µM
  T. gondii β-gal Growth (%): 90 ± 7%
[9]
  viability at 72 h, 0.1 µM: 96 ± 1%
  viability at 72 h, 1 µM: 93 ± 1%

## C#CCn1cnc2c(N)ncnc21.C#CCn1cnc2c(N)ncnc21 [Compound 18]
[5]; 0.1 µM
  T. gondii β-gal Growth (%): 117 ± 4%
[5]; 1 µM
  T. gondii β-gal Growth (%): 91 ± 6%
[9]
  viability at 72 h, 0.1 µM: 96 ± 2%
  viability at 72 h, 1 µM: 89 ± 3%

## Cc1ccc(C(C)C)cc1.Cc1ccc(C(C)C)cc1.Cc1cn(Cc2cn(-c3ccc([S]4[Ru]5[S](Cc6ccc(C(C)(C)C)cc6)[Ru+]4[S]5Cc4ccc(C(C)(C)C)cc4)cc3)nn2)c(=O)[nH]c1=O.[Cl-] [Compound 24]
[5]; 0.1 µM
  T. gondii β-gal Growth (%): 56 ± 15%
[6]
  IC50: 0.357 µM
[7]; [12]
  HFF Viability (%): 98 ± 10%
[7]; [14]
  HFF Viability (%): 96 ± 4%
[7]; [13]
  HFF Viability (%): 85%
[3]
  Stability in DMSO-d6 (1H NMR spectra): very good stability; also recorded: no modifications

## [N-]=[N+]=NCc1cc(=O)[nH]c(=O)[nH]1 [Compound 27, 6-(azidomethyl)uracil]
[5]; 0.1 µM
  T. gondii β-gal Growth (%): 101 ± 5%
[5]; 1 µM
  T. gondii β-gal Growth (%): 99 ± 11%
[9]
  viability at 72 h, 0.1 µM: 98 ± 5%
  viability at 72 h, 1 µM: 102 ± 3%

## NC(=O)CCCc1cn(Cc2cc(=O)[nH]c(=O)[nH]2)nn1 [Compound 28]
[7]; [12]
  HFF Viability (%): 101 ± 1%
[3]
  Stability in DMSO-d6 (1H NMR spectra): very good stability; also recorded: no modifications

## [N-]=[N+]=NCCn1cnc2c(N)ncnc21 [Compound 32]
[5]; 0.1 µM
  T. gondii β-gal Growth (%): 103 ± 8%
[5]; 1 µM
  T. gondii β-gal Growth (%): 94 ± 2%
[9]
  viability at 72 h, 0.1 µM: 104 ± 2%
  viability at 72 h, 1 µM: 103 ± 3%

## CNc1cn(CCn2cnc3c(N)ncnc32)nn1 [Compound 33]
[5]; 0.1 µM
  T. gondii β-gal Growth (%): 94 ± 11%
[5]; 1 µM
  T. gondii β-gal Growth (%): 83 ± 11%
[7]; [12]
  HFF Viability (%): 84 ± 6%
[7]; [14]
  HFF Viability (%): 71 ± 3%
[3]
  Stability in DMSO-d6 (1H NMR spectra): very good stability; also recorded: no modifications

## CC(C)(C)c1ccc(C[S]2[Ru]3[S](Cc4ccc(C(C)(C)C)cc4)[Ru+]2[S]3c2ccc(-n3cc(-c4ccccn4)nn3)cc2)cc1.Cc1ccc(C(C)C)cc1.Cc1ccc(C(C)C)cc1.[Cl-] [Compound 39]
[5]; 0.1 µM
  T. gondii β-gal Growth (%): 14 ± 1%
[5]; 1 µM
  T. gondii β-gal Growth (%): 0 ± 0%
[6]
  IC50: 0.075 µM
[7]; [12]
  HFF Viability (%): 94 ± 2%
[7]; [14]
  HFF Viability (%): 90 ± 1%
[7]; [13]
  HFF Viability (%): highly toxic and 1%
[3]
  Stability in DMSO-d6 (1H NMR spectra): very good stability; also recorded: no modifications

## CCc1nc(N)nc(N)c1-c1ccc(Cl)cc1 [Pyrimethamine, reference compound]
[4]; reference compound, ref [93]
  IC50: 0.326 µM
[2]; 2.5 µM, reference compound, ref [93]
  HFF Viability (%): 99%
